Measurements published in ChEMBL document CHEMBL3046608, “Efficient isolation of catechins from green tea and characterization of interaction property of catechins with proteins by HPLCUV/DAD combined with ultrafiltration” (Med Chem Res, 2012).

Tests used:
[1] = species: Rattus norvegicus; experiment: Binding affinity to Rattus norvegicus Wistar (rat) pancreatic membrane protein by ultrafiltration-HPLC-UV/DAD method
[2] = target: T1, Albumin (Homo sapiens, UniProt P02768); experiment: Binding affinity to 0.6 mM Homo sapiens (human) serum albumin by ultrafiltration-HPLC-UV/DAD method; format: ADME
T1 sequence (P02768 whole entry): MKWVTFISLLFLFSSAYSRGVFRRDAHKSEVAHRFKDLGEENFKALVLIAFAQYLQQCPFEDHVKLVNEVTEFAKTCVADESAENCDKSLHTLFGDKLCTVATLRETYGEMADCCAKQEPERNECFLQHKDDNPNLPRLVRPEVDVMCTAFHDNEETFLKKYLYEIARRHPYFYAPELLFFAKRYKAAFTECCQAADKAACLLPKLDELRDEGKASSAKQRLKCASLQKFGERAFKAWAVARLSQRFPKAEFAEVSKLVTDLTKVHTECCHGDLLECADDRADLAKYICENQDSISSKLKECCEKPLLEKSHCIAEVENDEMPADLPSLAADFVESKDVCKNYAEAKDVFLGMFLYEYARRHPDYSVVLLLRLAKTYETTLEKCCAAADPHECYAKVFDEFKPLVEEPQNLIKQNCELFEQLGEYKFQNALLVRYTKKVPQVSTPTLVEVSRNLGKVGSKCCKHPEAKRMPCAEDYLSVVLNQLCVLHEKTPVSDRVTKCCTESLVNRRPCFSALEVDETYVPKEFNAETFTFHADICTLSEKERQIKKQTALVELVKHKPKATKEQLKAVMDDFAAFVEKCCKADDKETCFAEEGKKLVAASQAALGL

[3] = target: T1, Albumin; experiment: Binding affinity to 0.06 mM Homo sapiens (human) serum albumin by ultrafiltration-HPLC-UV/DAD method; format: ADME
[4] = Diluted plasma protein binding in Rattus norvegicus Wistar (rat) by ultrafiltration-HPLC-UV/DAD method; format: ADME, cell-free; conditions: read-out: PPB (converted)
[5] = (§1) Total plasma protein binding in Rattus norvegicus Wistar (rat) by ultrafiltration-HPLC-UV/DAD method; format: ADME, cell-free; conditions: Wistar, read-out: PPB (converted)
[6] = Diluted plasma protein binding in Homo sapiens (human) by ultrafiltration-HPLC-UV/DAD method; format: ADME, cell-free; conditions: read-out: PPB (converted)
[7] = (§2) Total plasma protein binding in Homo sapiens (human) by ultrafiltration-HPLC-UV/DAD method; format: ADME, cell-free; conditions: read-out: PPB (converted)
[8] = test system: Lipid bilayer; experiment: Binding affinity to Rattus norvegicus Wistar (rat) pancreatic phospholipid membrane by ultrafiltration-HPLC-UV/DAD method
[9] = test system: Plasma; experiment: as §1; format: ADME, cell-free
[10] = test system: Plasma; experiment: as §2; format: ADME, cell-free
[11] = species: Rattus norvegicus; experiment: Selectivity ratio of binding affinity to Rattus norvegicus Wistar (rat) pancreatic membrane protein to Rattus norvegicus Wistar (rat) pancreatic phospholipid membrane

Structure (SMILES) | Activity [1] [%] | Activity [2] [%] | Activity [3] [%] | fraction unbound [4] | fraction unbound [5] | fraction unbound [6] | fraction unbound [7] | Activity [8] [%] | PPB [9] [%] | PPB [10] [%] | Ratio [11]
Oc1cc(O)c2c(c1)O[C@@H](c1ccc(O)c(O)c1)[C@H](O)C2 [(-)-CATECHIN] | 36.9 | 65.6 | 30.9 | 0.55 | 0.15 | 0.55 | 0.15 | – | – | – | –
Cn1c(=O)c2c(ncn2C)n(C)c1=O [CAFFEINE] | – | 72.7 | 58.4 | – | – | – | – | 62.8 | 80 | 80 | –
O=C(O[C@@H]1Cc2c(O)cc(O)cc2O[C@@H]1c1ccc(O)c(O)c1)c1cc(O)c(O)c(O)c1 [EPICATECHIN GALLATE] | 39.2 | 85.8 | 69.5 | – | 0.15 | – | 0.15 | 91.5 | – | – | 2
O=C(O[C@@H]1Cc2c(O)cc(O)cc2O[C@@H]1c1cc(O)c(O)c(O)c1)c1cc(O)c(O)c(O)c1 [EPIGALOCATECHIN GALLATE] | 37.4 | 85.2 | 68.7 | – | 0.15 | – | 0.15 | 78.8 | – | – | –
